# Laboratory results from PubChem BioAssay AID179 (DTP/NCI, 2004).
# The source made the active and inactive calls.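 The calls were made as follows: active = compounds giving half or more protection of infected cells from virus-caused growth loss, again on retest; inactive = the rest.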 Where a SMILES comes first, the peptide text is derived from it. [ ]: non-standard residue; d: D form. The star is where a group is joined. Nle = CCCC[CH](N)C(=O)O; Cbz = O=C(OCc1ccccc1)*; OBn = c1ccc(CO*)cc1
# Tested on: CEM cells HIV-1 protection, formazan growth assay
# Test: NCI AIDS Antiviral Assay
# Conditions: for IC50: measured here: growth of uninfected CEM cells
# Method in brief: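 Steps: treat uninfected and HIV-1-infected human CEM cells at five drug levels; quantify growth by soluble formazan; retest any compound reaching 50% protection; classify actives from the retest.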
SMILES,EC50 [µM],IC50 [µM],outcome
O=C(CN1CCN(c2ccccc2)CC1)N1CCc2c([nH]c3ccccc23)C1c1cccnc1 (stereo not drawn),> 1.58,> 1.58,
O=C(OCCOCCOC(=O)c1c[nH]cc1-c1ccccc1)c1c[nH]cc1-c1ccccc1,,,inactive
C=CCCCn1ccc2ccccc21,,,inactive
CCN1CCCc2cc3c(C(F)(F)F)cc(=O)oc3cc21,> 17.4,> 17.4,
C/C(=N\O)c1ccc(S(=O)(=O)c2ccc([N+](=O)[O-])cc2)cc1,> 200,> 200,
NC(CSS(=O)(=O)O)=NCc1cccs1,> 200,> 100,
CCCCC(NC(=O)C1CCCN1C(=O)OCc1ccccc1)C(=O)OCc1ccccc1 (stereo not drawn) (Cbz-Pro-[Nle]-OBn; configuration not given here),> 41.7,> 41.7,
CCOC(=O)c1c(C)n(C)c2c1nnc1ccccc12,> 200,129,
Cc1ccc2nc(-c3ccc4nc(-c5ccc(N=Nc6ccc(-c7nc8ccc(-c9nc%10ccc(C)c(S(=O)(=O)O)c%10s9)cc8s7)cc6)cc5)sc4c3)sc2c1S(=O)(=O)O,19.5,> 200,
COc1cc(CC2c3cc(OC)c(OC)cc3CCN2C)c(Oc2cc3c(cc2OC)-c2c(OC)c(OC)c(OC)c4c2C(C3)N(C)CC4)cc1OC (stereo not drawn),,,inactive
O=c1[nH]nc(-c2ccccc2)c(-c2ccccc2)c1-n1nc(-c2ccccc2)c2ccccc2c1=O,> 10.7,> 10.7,
CN1C(C)(C)CC(=O)C(Br)C1(C)C (stereo not drawn),> 200,117,
CCCCCCCCCCCC1OC[C@H]2O[C@@H](n3cc(C)c(=O)[nH]c3=O)C[C@H]2N1O (stereo partly drawn),> 200,21.9,
NC(=O)NCOC(=S)SSSC(=S)OCNC(N)=O,> 200,32.4,
CCCCCCCCCCCCc1ccsc1-c1ccc(-c2ccc(-c3sccc3CCCCCCCCCCCC)s2)s1,> 25.1,> 25.1,
CNC(=O)C1(C#N)C(c2ccccc2)C(C#N)(C(=O)NC)C1c1ccccc1 (stereo not drawn),> 200,166,

SMILES,EC50 [µM],IC50 [µM],outcome
O=c1c2cc3ccccc3n2c(=O)c2cc3ccccc3n12,> 5.01,> 5.01,
COc1ccc(/C=C\c2cc(OC)c(OC)c(OC)c2)cc1OC(=O)CC(NC(=O)OC(C)(C)C)C(=O)OC(C)(C)C (stereo not drawn),> 2,0.00331,
CC(=O)Nc1ccc(Nc2cc(=O)[nH]c(=O)[nH]2)cc1,> 200,> 200,
CCOC(=O)Cc1csc(N/N=c2/sc(C=Nc3ccccc3)c(O)n2CC)n1,> 200,> 200,
CCOC(=O)/C=C1\SC12C(C)(C)CCCC2(C)C,> 200,61.7,
[O-]c1c2cc(-[n+]3c(-c4ccccc4)cc(-c4ccccc4)cc3-c3ccccc3)cc1CO[C@@H](c1ccccc1)[C@H](c1ccccc1)OCCOCCO[C@@H](c1ccccc1)[C@H](c1ccccc1)OC2,> 2,0.105,
Cc1cccc(C(C)(C)C)c1NC(=O)C(C#N)C1=C(Cl)C(=O)c2ccccc2C1=O (stereo not drawn),> 107,22.9,
COC(=O)[C@H](Cc1ccccc1)NC(=O)N(CCC#N)CCN(C(=O)N[C@@H](Cc1ccccc1)C(=O)OC)c1ccccc1,> 200,29.5,
CCCc1cc(=O)oc2c3c(c4c(c12)OC(C)(C)C=C4)O[C@H](C)C(C)[C@@H]3O (stereo partly drawn),0.331,25.1,
Cc1nc2ccccc2nc1CC(=O)C(=O)Nc1ccc(Cl)cc1Cl,302,347,
CN(C)CC(=O)N1CC(COS(C)(=O)=O)c2ccc(O)cc21 (stereo not drawn),> 20,3.47,
CC[n+]1c(/C=C/c2ccc(N(CCCl)CCCl)cc2)ccc2cc(I)ccc21,,,inactive
CCOc1ccccc1NC(=O)C(=O)CC(=O)c1sc(Nc2nnc(-c3ccc(Cl)c(Cl)c3)o2)nc1C,> 33.9,> 33.9,
O=c1cc(-c2ccccc2)[nH]c2nccn12,> 200,> 200,
NS(=O)(=O)c1ccccc1C(=O)N/N=C(\c1nc2ccc([N+](=O)[O-])cc2[nH]c1=O)C(O)c1ccc([N+](=O)[O-])cc1 (stereo not drawn),> 120,107,
